The values below come from patent US10869849B2, “Substituted aromatic compounds and pharmaceutical compositions for tissue self-repair and regeneration” (Liminal BioSciences Limited, priority 2014, dated 2020).

The test system of series [1] is Hepatocyte Growth Factor (HGF). Description: HGF mRNA expression in TGF-β1-treated normal human dermal fibroblasts (real-time PCR). The note with it: compound 500 μM, 24 h; for fold induction at 500 µM: Homo sapiens, NHDF + rhTGF-β1 (10 ng/ml), TGF-β1 control = 1.00, untreated = 7.23, read-out: HGF Relative Quantitation. The series is classed as cell-based. Here is the method: (§1) Experiments were undertaken to determine the effect of compounds on hepatocyte growth factor expression in vitro normal human dermal fibroblasts (NHDF) from adult donor (Clonetics #CC-2511). NHDF were starved overnight in DMEM/F12+0.5% FBS and treated with or without rhTGF-β1 (10 ng/ml) and compound I (500 μM) for 24 h. RNA was isolated with miRNeasy® kit (QIAGEN®), including on-column DNase digestion step. cDNA synthesis was done (0.5 μg RNA/reaction) using the RT^2 First Strand kit (QIAGEN® #330401). Real-Time PCR was performed as described in the RT^2 Profiler PCR Array handbook on a AB-7900HT real-time cycler. Real-Time PCR data was analyzed using the ΔΔCt method on the RT^2 Profiler PCR Array Data Analysis Web Portal. All Ct values >35 or non amplified were changed to the cut-off value of 35. The housekeeping genes used for normalization are GAPDH and RPLP0. The control group is TGF-β1 treated cells.
Background: Quantitative PCR measures a nucleic acid by following its amplification.

Series [2] concerns Hepatocyte Growth Factor (HGF). The description is as above. Type of series: cell-based. Conditions: NHDF + rhTGF-β1 (10 ng/ml), 24 h, TGF-β1 control = 1.00, untreated = 7.23, read-out: HGF Relative Quantitation; for fold induction at 250 µM: compound 250 μM; for fold induction at 100 µM: compound 100 μM.
The subject of another series is Serpin A1 (AAT). Description: AAT mRNA expression, qPCR-panel on NHDF (FIG. 4). The series is classed as cell-based, human. The note with it: injured NHDF cells. Here is the method: as §1, with “cells. As mentioned above, AAT can induce nerve regeneration. […] Compound I is representative of the compounds of formula I disclosed herein. Therefore, the compounds of formula I disclosed herein may increase regeneration of nerves via the production of endogenous AAT at the site of injury.” for “cells.”

The subject of series [3] is LOX, MMP1, MMP2, MMP9, MMP13, TIMP3 and PLAT (tPA). Nature of the series: Expression of regeneration markers in TGF-β1-injured HK-2 epithelial cells (FIG. 3). Type of series: cell-based, human. The note with it: HK-2 cells, rhTGF-β1 (10 ng/ml), compound 500 μM, 24 h.
Another series has as its system injured kidney. Description: Organ function (GFR) of an injured kidney (FIG. 5). The series is classed as in vivo.
The subject of series [4] is LOX, MMP13, PLAU (uPA), serpin E1, TIMP3 and ILK. Description: Expression of regeneration markers in TGF-β1-injured NHDF (FIG. 2). The series is classed as cell-based, human. The note with it: rhTGF-β1 (10 ng/ml), compound 500 μM, 24 h. Here is the method:
as §1, with “cells. An experiment was undertaken to determine the effect of compounds on the expression of regeneration markers. This experiment was performed with NHDF (Normal Human Dermal Fibroblasts) and human epithelial cells (renal tubular epithelial cells, HK-2) involved in tissue regeneration after single, multiple or constant injury. Injury was simulated by incubation of the cells with TGF-β1. […]” for “cells.”

Molecules are shown by their SMILES. Structures can show the parent of a compound that is named as a salt.

For the molecule `CCCCCc1cccc(C(F)C(=O)O)c1` (racemic) [Compound XIII, Sodium Salt of (RS)-2-Fluoro-2-(3-pentylphenyl)acetic acid], the fold induction at 500 µM in series [1] came out at 1.71. On the same count and under the same terms, then `CCCCc1cccc(CCC(=O)O)c1` [Compound III, Sodium Salt of 3-(3-butylphenyl)propionic acid], with 2.41.

For the molecule `CCCCCc1cc(F)cc(CC(=O)O)c1` [Compound X, Sodium Salt of 2-(3-fluoro-5-pentylphenyl)acetic acid], the fold induction at 250 µM in series [2] is 3.06. Consider `CCCCCc1cc(O)cc(CC(=O)O)c1` [Compound VII, Sodium Salt of 3-hydroxy-5-pentylphenylacetic acid], for which the fold induction at 500 µM in series [1] was 2.66.

As for `CCCCCCc1cccc(CC(=O)O)c1` [Compound VI, Sodium Salt of 2-(3-Hexylphenyl)acetic acid], the fold induction at 100 µM in series [2] is 2.77. Regarding `CCCCCc1cc(CC(=O)O)cc(CCCCC)c1O` [Compound XVIII, Sodium Salt of 2-(4-Hydroxy-3,5-dipentylphenyl)acetic acid], in series [2] (compound 25 μM), the fold induction at 25 µM amounted to 1.4. Turning to `CCCCCc1cccc(CCC(=O)O)c1` [Compound II, Sodium Salt of 3-(3-pentylphenyl)propionic acid], the fold induction at 250 µM in series [2] is 1.37. In the case of `CCCCCc1cccc(CC(=O)O)c1F` [Compound XI, Sodium Salt of 2-(2-Fluoro-3-pentylphenyl)acetic acid], in series [2], the fold induction at 250 µM is 3.38. As to `CCCCCc1cc(CC(=O)O)ccc1F` [Compound XII, Sodium Salt of 2-(4-Fluoro-3-pentylphenyl)acetic acid], the fold induction at 500 µM in series [1] turned out to be 2.47. On to `CCCCCc1cccc(CC(=O)[O-])c1.[Na+]` [Compound I, Sodium Salt of (3-pentylphenyl)acetic acid], for which the fold induction at 500 µM in series [1] was 4.23. Further, in series [1] (NHDF, rhTGF-β1 (10 ng/ml)), the “expression of HGF (FIG. 1), result in words” value was “increases the expression of HGF”. In addition, in the series with Serpin A1 (AAT), the “AAT mRNA expression” value is “increase AAT mRNA expression”. In addition, in series [3], the “expression level of regeneration markers LOX, MMP1, MMP2, MMP9, MMP13, TIMP3 and PLAT (tPA)” value was “all expressed at a level close to the normal level observed in healthy cells”. Further, the “organ function (GFR)” value in the series on injured kidney is reported as “increase in organ function (GFR)”. In addition, in series [4], the “expression level of regeneration markers LOX, MMP13, PLAU (uPA), serpin E1, TIMP3 and ILK” value is on record as “all expressed at a normal level”. `CCCCCc1cc(CCCCC)cc(C(C)(C)C(=O)O)c1` [Compound XXXIII, Sodium Salt of 2-(3,5-Dipentylphenyl)-2-methylpropanoic Acid]: in series [2] (compound 6 μM), the fold induction at 6 µM worked out at 1.54. On to `CCC/C=C/c1cccc(CC(=O)O)c1` [Compound IV, Sodium Salt of E-(3-pent-1-enyl-phenyl)acetic acid], for which the fold induction at 500 µM in series [1] turned out to be 3.8. Same read-out and setting: then `CCCCCc1cc(CC(=O)O)ccc1O` [Compound VIII, Sodium Salt of 2-(4-Hydroxy-3-pentylphenyl)acetic acid], with 1.44.

`CCCCCc1cc(CCCCC)c(F)c(CC(=O)O)c1` [Compound XXXII, Sodium Salt of 2-(2-Fluoro-3,5-dipentylphenyl)acetic Acid]: in series [2] (compound 10 μM), the fold induction at 10 µM was 1.73. On to `CCCC/C=C/c1cccc(CC(=O)O)c1` [Compound V, Sodium Salt of 2-(3-(Hex-1-enyl]phenyl)acetic acid], for which the fold induction at 100 µM in series [2] was determined as 2.73. The melting point is the temperature, or range, at which the solid turns liquid. For the molecule `CCCCCc1cc(CCCCC)cc(CC(=O)[O-])c1.[Na+]` [Compound XIV, Sodium 2-[3,5-Dipentylphenyl]acetate], the melting point is 225 to 230 °C.
